From patent US20220106282A1, “TREATMENT FOR BREAST CANCER, INCLUDING TRIPLE-NEGATIVE BREAST CANCER” (priority 2018, published 2022)
“And” between values parts separate entries of the source, which are not always exact repeats. Identical values can stand only once. Marks after values point to notes of the source that are not given here.

What was measured:
[1] = test system: patients having metastases spread into axillary lymph nodes; assay: Chemotherapy of patients with axillary lymph node metastases; type: in vivo, human
[2] = test system: breast tumors in female FVB mice transgenic for HER-2/neu; assay: Antitumor activity on model of multiple breast tumors in HER-2/neu transgenic mice
Protocol: Two adenocarcinoma subtypes can be differentiated, in particular ER+, PR−, and ER−, PR− [2].
The study was carried out in female FVB mice transgenic for HER-2/neu by conventional category; the strain was obtained from the mouse bank Charles River Laboratories (Italy). At the beginning of the study the animals were 21-41 weeks old having weight of 25 to 30 g.
The study medicament was administered i.g. using a metal atraumatic gavage (with the procedure corresponds to the oral route of administration in clinical settings). The medicament was administered in a single daily dose (20 mg/kg of body weight) and 5-fold daily dose of 100 mg/kg of body weight. Ex tempore solutions of the medicament for administration were prepared in olive oil (refined olive oil supplemented with unrefined extra virgin olive oil available under Global Village “Clasico” trademark, lot L:183351116, expiry date 26 Apr. 2020, BAIEO, Spain). The administered volume was 0.1 ml per 10 g of a mouse body weight (0.2 ml of a ready-to-use formulation for a mouse of 20 g). The medicament administration was started 24 hours after the randomization. The duration of the administration course was 27-28 days.
This dose corresponds to a human daily dose of 20 mg/kg.
The control groups were given the olive oil (placebo).
The evaluation criteria included the clinical observation data, animals body weights, time of death (if applicable), tumor growth over time, pathomorphological examination data (verification of a neoplasm during autopsy, assessment of toxic effects by macroscopic presentation of changes in the internal organs).
The animals body weights were recorded before the first administration of the medicaments and then twice per week using a verified high-speed electronic laboratory balance Ohaus Scout Pro (USA) with a maximum load of 2000 g and a measurement step of 0.1 g.
Macroscopically detectable tumor nodes were measured in animals once per week during weighing process. Two linear dimensions including the largest one and the largest rectangular to the former were recorded for each of the nodes. The largest dimension was taken as a length (a) and the second dimension as a width (b) of the tumor nodes. A tumor volume was calculated by the expression as follows: […]
The efficacy of the therapy was assessed by recording a change in the average tumor volume, tumor growth inhibition (TGI), and the average total tumor volumes and its change over time in each of the mice.
The percent of tumor growth inhibition was calculated by the expression as follows:
TGI=(Vctrl−Vexp)/Vctrl×100(%),
where Vctrl is an average tumor volume in a control group, and Vexp is an average tumor volume in an experimental group.
The primary data from individual forms were transferred to Microsoft Excel 2007 books. The group arithmetic average (M) and standard deviation (m) were calculated for all quantitative data. The statistical analysis was performed using the statistical software GraphPad Prism 6.0. The differences between the groups were assessed using ANOVA regression analysis and the Fisher's exact test.

[3] = 20 mg/kg i.g. daily, Day 27 vs Day −1

**Q.** Which results are given for `C[C@H]1Oc2cc(OS(N)(=O)=O)ccc2[C@H]2CC[C@]3(C)C(=O)CCC[C@H]3[C@H]21` [compound of formula (1), 3-O-sulphamoyloxy-7β-methyl-D-homo-6-oxa-8α-estra-1,3,5(10)-trien-17a-one]?
**A.** Overall survival rate ([1]; as compared to the Tamoxifen treated group): increase the overall survival rate; Prolongation of recurrence-free survival rate ([1]; as compared to the untreated group): 11%; Average total volume of tumors in mice (M) ([2]; 20 mg/kg i.g. daily, Day 6): 0.86 cm^3; Average volume of tumors present at the beginning of the experiment (M) ([2]; 20 mg/kg i.g. daily, Day 6): 0.32 cm^3; Relative change of the average total volume of tumors to that of Day −1 (M) ([2]; 20 mg/kg i.g. daily, Day 6): 20%; TGI (average total tumor volume) ([2]; 20 mg/kg i.g. daily, Day 6): −26%; TGI (average tumor volume) ([2]; 20 mg/kg i.g. daily, Day 6): −7%; Average total volume of tumors in mice (M) ([2]; 20 mg/kg i.g. daily, Day 13): 1.04 cm^3; Average volume of tumors present at the beginning of the experiment (M) ([2]; 20 mg/kg i.g. daily, Day 13): 0.39 cm^3; Relative change of the average total volume of tumors to that of Day −1 (M) ([2]; 20 mg/kg i.g. daily, Day 13): 38** %; TGI (average total tumor volume) ([2]; 20 mg/kg i.g. daily, Day 13): 19%; TGI (average tumor volume) ([2]; 20 mg/kg i.g. daily, Day 13): 30%; Average total volume of tumors in mice (M) ([2]; 20 mg/kg i.g. daily, Day 20): 1.61 cm^3; Average volume of tumors present at the beginning of the experiment (M) ([2]; 20 mg/kg i.g. daily, Day 20): 0.6 cm^3; Relative change of the average total volume of tumors to that of Day −1 (M) ([2]; 20 mg/kg i.g. daily, Day 20): 101** %; TGI (average total tumor volume) ([2]; 20 mg/kg i.g. daily, Day 20): −7%; TGI (average tumor volume) ([2]; 20 mg/kg i.g. daily, Day 20): 9%; Average total volume of tumors in mice (M) ([2]; 20 mg/kg i.g. daily, Day 27): 2.19 cm^3; Average volume of tumors present at the beginning of the experiment (M) ([2]; 20 mg/kg i.g. daily, Day 27): 0.81 cm^3; Relative change of the average total volume of tumors to that of Day −1 (M) ([2]; 20 mg/kg i.g. daily, Day 27): 212** %; TGI (average total tumor volume) ([2]; 20 mg/kg i.g. daily, Day 27): −7%; TGI (average tumor volume) ([2]; 20 mg/kg i.g. daily, Day 27): 9%; % of change from baseline (average total tumor volume) [2, 3]: 204%; % of change to the initial value (average tumor volume) [2, 3]: 200%; Average total volume of tumors in mice (M) ([2]; 20 mg/kg i.g. daily, Day −1): 0.72 cm^3; Average volume of tumors present at the beginning of the experiment (M) ([2]; 20 mg/kg i.g. daily, Day −1): 0.27 cm^3; Relative change of the average total volume of tumors to that of Day −1 (M) ([2]; 20 mg/kg i.g. daily, Day −1): 0%; TGI (average total tumor volume) ([2]; 20 mg/kg i.g. daily, Day −1): −71%; TGI (average tumor volume) ([2]; 20 mg/kg i.g. daily, Day −1): −50%; Average volume of new tumors, % less than that of the control group ([2]; 20 mg/kg i.g. daily, end of observation): 18%; Absolute number of new tumors ([2]; 20 mg/kg i.g. daily, end of study): 29; Frequency of tumor stabilizations ([2]; 20 mg/kg i.g. daily, end of study, volume not increased by more than 20%): 19%; Average volume of new tumors at the end of the observation period (M) ([2]; 20 mg/kg i.g. daily, listed as medicament): 0.27±0.05 cm^3 and 0.27 cm^3; Average total volume of tumors in mice (M) ([2]; 100 mg/kg i.g. daily, Day 6): 0.94 cm^3; Average volume of tumors present at the beginning of the experiment (M) ([2]; 100 mg/kg i.g. daily, Day 6): 0.38 cm^3; Relative change of the average total volume of tumors to that of Day −1 (M) ([2]; 100 mg/kg i.g. daily, Day 6): 26%; TGI (average total tumor volume) ([2]; 100 mg/kg i.g. daily, Day 6): −38%; TGI (average tumor volume) ([2]; 100 mg/kg i.g. daily, Day 6): −27%; Average total volume of tumors in mice (M) ([2]; 100 mg/kg i.g. daily, Day 13): 1.15 cm^3; Average volume of tumors present at the beginning of the experiment (M) ([2]; 100 mg/kg i.g. daily, Day 13): 0.46 cm^3; Relative change of the average total volume of tumors to that of Day −1 (M) ([2]; 100 mg/kg i.g. daily, Day 13): 68** %; TGI (average total tumor volume) ([2]; 100 mg/kg i.g. daily, Day 13): 11%; TGI (average tumor volume) ([2]; 100 mg/kg i.g. daily, Day 13): 18%; Average total volume of tumors in mice (M) ([2]; 100 mg/kg i.g. daily, Day 20): 1.36 cm^3; Average volume of tumors present at the beginning of the experiment (M) ([2]; 100 mg/kg i.g. daily, Day 20): 0.55 cm^3; Relative change of the average total volume of tumors to that of Day −1 (M) ([2]; 100 mg/kg i.g. daily, Day 20): 139* %
